“Also recorded” adds a separate entry of the source.
What was measured:
[1] = parameters: method as in PMID 29876538; details: acids such as TFA or HCl; cited from earlier work
Text: The Methyl Red (MR) quencher was incorporated by coupling Fmoc-Lys(MR)-OH[20] onto a Rink-amide functionalised polystyrene resin (0.7 mmol/g), followed by the substrate sequence, using DIC and Oxyma as the coupling combination. The use of Fmoc-Lys(MR)-OH as a building block avoided the need for orthogonal deprotection on the resin[27],[28]. A bis-ethylene glycol spacer was introduced as the last amino acid before the fluorophore to increase hydrophilicity and promote aqueous solubility of the probe. The BODIPY (1,3,5,7-tetramethyl-8-phenyl-4,4-difluoroboradiazaindacene) fluorophore chosen as p ...

[2] = cited from earlier work
Text: The new probe designed here was FRET-based, with a BODIPY fluorophore at the N-terminus, while the C-terminal Gln was replaced with a Lys residue functionalised with a quencher (Methyl Red, λmax 500 nm)[20].

human cathepsin D = details: cited from earlier work
Text: Herein, we report the design and synthesis of a fluorogenic probe, based on a specific substrate for CatD, which provides an OFF→ON signal upon activation with good signal amplification. […] When choosing a substrate to build an optical probe to be used in cells and potentially in vivo, control of cross-reactivities is vital and it is important to design a specific substrate that is not ...

[3] = tested on: CatD activity in human monocyte-derived macrophages (MDM); test: Confocal imaging of CatD activity in monocyte-derived macrophages; format: cell-based; details: Pepstatin A 20 μM, S. pneumoniae MOI 10:1, CatD-P3 10 μM
Method: Confocal fluorescence microscopy (λex 488, λem 512 nm) images of the detection of CatD activity in monocyte-derived macrophages. […] Mock infected macrophages (no bacteria) were used as a control (left panel). […] At 10 h the cells were washed, fixed in 2% paraformaldehyde and cell nuclei were counter-stained with DAPI (λex 405, λem 461 nm).
Human MDM were matured in 24-well Corning tissue culture plates over 14 days from Peripheral Blood Mononuclear cells obtained healthy volunteers by informed written consent, under ethical approval 21-EMREC-041. Following maturation, the MDM were removed from wells by treatment with Accutase (BioLegend) and re-seeded onto iBidi 8-well chamber slides. […] Following fixation, cells were washed again with 3 × PBS, with DAPI (0.1 µg/mL) added in the 2nd PBS wash for 10 min.
In these experiments, macrophages were incubated for 6 h in the presence or absence (Mock)
(20 μM) was added aoer 4 h. At 10 h the cells were washed, ﬁxed in 2% paraformaldehyde and cell nuclei
were counter-stained with DAPI (λex 405, λem 461 nm).

**Q.** For CC1=CC(C)=[N+]2C1=C(c1ccccc1)c1c(C)cc(C)n1[B-]2(F)F [BODIPY, 1,3,5,7-tetramethyl-8-phenyl-4,4-difluoroboradiazaindacene], which stability to acids [1] is on record?
**A.** The stability to acids was “not stable to acids”.

**Q.** What does the source list for CC1=CC(C)=[N+]2C1=C(c1ccc(C(=O)ON3C(=O)CCC3=O)cc1)c1c(C)cc(C)n1[B-]2(F)F [compound 2]?
**A.** fluorescence quantum yield Φ [2]: 0.6; pH sensitivity of fluorescence [2]: pH insensitive

**Q.** For “Ala-Ile-Ala-Phe↑Phe-Ser-Arg-Gln [kallistatin, natural CatD substrate kallistatin, from which Pimenta et al. derived the substrate]”, which Km (human cathepsin D) is on record?
**A.** The Km was 0.27 µM.

**Q.** What about the kcat (human cathepsin D) of the same molecule?
**A.** The kcat was 16.25 s⁻¹.

**Q.** For Pepstatin A, which “effect of Pepstatin A on CatD-P3 fluorescence in infected macrophages” value [3] is on record?
**A.** Its value is “a decrease in the fluorescence signal; also recorded: prevented CatD-P3 activation resulting in reduced/no green fluorescence; also recorded: marked decrease in fluorescent signal”.

Source: paper PMC10622513, “A fluorogenic, peptide-based probe for the detection of Cathepsin D in macrophages” (Communications Chemistry, 2023)
